Measured values from article PMC4919643, “Intestinally-targeted TGR5 agonists equipped with quaternary ammonium have an improved hypoglycemic effect and reduced gallbladder filling effect” (Scientific Reports, 2016).
Like-named read-outs stand apart in the source and are kept apart here.

Columns and labels:
[1] = Caco-2 permeability determination; type: in vitro ADME; settings: human
Experimental: Caco-2 permeability determination. Caco-2 permeability determination was carried out […]
Caco-2 cells were obtained from the ATCC (Cat#HTB-37) and maintained in Dulbecco’s modified Eagle’s Medium containing 10% fetal bovine serum, 1% glutamine, 1% nonessential amino acids, 100 μg/mL streptomycin, and 100 U/mL penicillin.
CO2 and 90% relative humidity environment. Caco-2 cells were passaged every 7 days at a ratio of 1:10. Cells were used between passages 30 and 40. After 21 days of culture, the integrity of the cell monolayer was verified by measuring the transepithelial electrical […]
Drug transport from the apical side to the basolateral side (A-B) and from the basolateral side to the apical side was measured simultaneously under the same condition.
Propranolol and atenolol were used as the […] control, respectively.
Digoxin was used as the positive control for Pgp-mediated drug efflux. In brief, the method was as follows. After washing the monolayer with HBSS three times, the compounds were diluted and added to the appropriate well (pH 6.8 for apical side and pH […]
7.4 for basolateral side). […] Samples were […]
collected from the donor side at 5 and 95 min, and from the receiver side at 35 and 95 min post-incubation. The concentration of samples was measured by LC-MS/MS. The Papp was calculated from the following equation:
Papp = (VA/(SA×T))×([drug]acceptor/ [durg]initial donor )
Where VA is the volume of the acceptor well, SA is the surface area of the membrane, T is the total transport time, [drug]acceptor is the drug level at the acceptor side, and [drug]initial donor is the drug level at the donor side at T = 0. […]

[2] = Drug levels in plasma, bile and gallbladder tissue after 3 days oral administration to ob/ob mice; type: in vivo; settings: male, mouse, after the 3-day gallbladder filling assay, 100 mg/kg p.o.
Description: Drug levels test in plasma, bile, and gallbladder tissue after 3 days oral administration to ob/ob mice. Plasma, bile, and gallbladder were taken from experiments performed in accordance with the guidelines for the use of experimental animals in the Shanghai Laboratory Animal Administration (Shanghai, China) after three days treatment of 26a to ob/ob mice. Blood samples were collected through cardiac puncture into heparinized tubes, and plasma was harvested by centrifugation. Bile and gallbladder tissue were collected from each mouse after blood withdrawal. To 10 mg of gallbladder was added 100 μL of MeOH, and the mixture was homogenized. A 15 μL aliquot of bile samples was diluted with 100 μL of MeOH and then mixed. Plasma, bile, and tissue homogenate were stored at −20 °C. These samples were protein precipitated with MeCN using clopidogrel as the internal standard, and the supernatant was injected onto a LC-MS/MS system for the quantification of 26a. Chromatographic separation was […]
0.5 mL min−1 using ternary mobile phase: A (H2O with 5 mM ammonium acetate and 0.5% TFA); B(MeCN: H2O = 95:5 with 0.1% TFA ); C (MeOH with 1% TFA). The MS/MS detection was carried out in MRM mode using a positive electrospray ionization […]
Long-term study of 26a in ob/ob mice. Three groups of ob/ob mice (male) was orally […]
At day 0 (before dosing), 4, 8, 12 and 18, non-fasted blood glucose was measured before dosing. Mice were fasted for 6 h after dosing and then fasted blood glucose was measured.
The serum level of HbA1c was measured at day 0 (before dosing) and 18 by Adicon biochemical analyzer. The body weight of each mouse was recorded every day. The triglyceride and total cholesterol level was measured after the final dose.
Statistical analysis. All data were expressed as the mean ± SEM or mean ± SD. For the experiment including multiple time points, one-way ANOVA statistical analysis was used; otherwise, unpaired Student’s t test was used. P < 0.05 was considered to be statistically significant.

ob/ob mice = experiment: Long-term (18-day) study in ob/ob mice; type: in vivo, mouse; settings: for decrease of HbA1c level on day 18: 18 days; for HbA1c, signed change vs control (Fig. 9C): day 18
[3] = 100 mg/kg p.o., after 18-day treatment
[4] = 18-day treatment, 50 or 100 mg/kg p.o., dose-dependent
[5] = 18-day treatment, data not shown

In the case of `CN(CC[N+](C)(C)C)C(=O)CCc1cc(Cl)c(Oc2ccsc2C(=O)N2CCN(C3CC3)c3ccccc32)cc1Cl` [Compound 26a], the Papp A→B at 95 min ([1]; Caco-2, apical to basolateral side) is reported as 0.06 ×10⁻⁶ cm/s, the Papp B→A at 95 min ([1]; Caco-2, basolateral to apical side) is reported as 0.8 ×10⁻⁶ cm/s and the concentration at 3 days ([2]; read-out: concentration in gallbladder) is reported as 112 ± 30 ng/mL. The concentration at 3 days ([2]; bile, read-out: concentration in bile) was 7800 ± 1850 ng/mL, the concentration at 3 days ([2]; plasma, read-out: concentration in plasma) was 18 ± 3 ng/mL and the “decrease of HbA1c level on day 18” value (ob/ob mice; 50 mg/kg p.o., not significant) was 0.48%. The “triglyceride, signed change vs control (Fig. 9D)” value (ob/ob mice; 50 mg/kg p.o., after 18-day treatment) was -7.2%, the “HbA1c, signed change vs control (Fig. 9C)” value (ob/ob mice; 50 mg/kg p.o.) was -0.48% and the “decrease of HbA1c level on day 18” value (ob/ob mice; 100 mg/kg p.o., significant) was 0.94%. The “decrease of triglyceride level” value (ob/ob mice; [3]) was 22%, the “triglyceride, signed change vs control (Fig. 9D)” value (ob/ob mice; [3]) was -22% and the “HbA1c, signed change vs control (Fig. 9C)” value (ob/ob mice; 100 mg/kg p.o.) was -0.94%. For the same compound, the “body weight of mice” value (ob/ob mice; 18-day treatment) was “not affected”, the “significant change in levels of total cholesterol” value (ob/ob mice; 18-day treatment, 50 or 100 mg/kg p.o.) was “not observed” and the fasting blood glucose (ob/ob mice; [4]) was “decreased dramatically”. For the same compound, the non-fasting blood glucose (ob/ob mice; [4]) was “decreased dramatically”, the “level of alanine aminotransferase” value (ob/ob mice; [5]) was “No significant changes” and the “level of alkaline phosphatase” value (ob/ob mice; [5]) was “No significant changes”. For the same compound, the “level of aspartate aminotransferase” value (ob/ob mice; [5]) was “No significant changes” and the “level of total bilirubin” value (ob/ob mice; [5]) was “No significant changes”.
